The source made the active and inactive calls.
Tests used:
[1] = OV-90 cell viability loss – plate reader, dry powder, SA8, PAX8 inhibitor project, dose response (AID 743149); assay type: functional, cell-based
[2] = IGROV1 cell killing – plate reader, dry powder samples, PAX8 inhibitor project, dose response (AID 743043); assay type: functional, cell-based; details: IGROV-1
[3] = molecular target: Paired box protein Pax-8 (Homo sapiens, UniProt Q06710); test: PAX8 transcriptional activity inhibition in RMG-I – RMG-I cells, luciferase, cherry-pick, dose response (AID 687027); assay type: functional, cell-based;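 note: luciferase reporter driven by Pax8 target thyroperoxidase promoter measured by SteadyGlo luminescence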
[4] = PAX8-dependent cell viability loss – plate reader, dry powder, dose response (AID 743049); assay type: functional, cell-based
[5] = OVCAR-3 cell viability loss – plate reader, dry powder samples, PAX8 inhibitor project, dose response (AID 743044); assay type: functional, cell-based
[6] = OVCAR4 cell viability loss – plate reader, dry powder, SA11, cytotoxicity control for PAX8 inhibitor project, dose response (AID 743150); assay type: functional, cell-based; details: OVCAR-4
[7] = tested on: Streptococcus; test: GAS UMAA2166 growth inhibition – luminescence, BacTiterGlo, counter-screen for streptokinase expression inhibitor project, dose response (AID 1915); assay type: functional, organism-based;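 note: potency for reduction of bacterial viability or growth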
[8] = microbe, parasite or virus in culture; assay type: functional; details: Mycobacterium tuberculosis
[9] = molecular target: T1, Streptokinase A (Streptococcus pyogenes serotype M1, UniProt P10520); test: viability-normalized secreted streptokinase activity reduction – plasminogen activation absorbance, OD405, dose response (AID 1914); assay type: functional, Streptococcus pyogenes M1 GAS;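 note: secreted streptokinase activity via plasminogen activation per viability signal from cell pellet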
T1 sequence (P10520 whole entry): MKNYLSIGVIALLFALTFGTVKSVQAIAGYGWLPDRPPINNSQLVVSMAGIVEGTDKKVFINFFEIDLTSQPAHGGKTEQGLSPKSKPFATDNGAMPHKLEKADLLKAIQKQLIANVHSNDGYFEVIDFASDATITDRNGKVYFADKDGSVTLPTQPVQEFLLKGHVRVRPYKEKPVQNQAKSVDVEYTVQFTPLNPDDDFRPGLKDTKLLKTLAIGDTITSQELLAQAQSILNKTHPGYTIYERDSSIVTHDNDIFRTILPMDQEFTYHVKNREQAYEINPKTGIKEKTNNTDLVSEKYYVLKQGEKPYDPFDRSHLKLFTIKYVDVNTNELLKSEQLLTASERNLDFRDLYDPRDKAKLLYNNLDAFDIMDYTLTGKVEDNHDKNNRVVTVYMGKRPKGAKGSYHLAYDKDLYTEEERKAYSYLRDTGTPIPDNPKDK

[10] = tested on: Streptococcus sp. 'group A'; test: Streptococcus pyogenes SK(-)GAS viability under kanamycin – luminescence, BacTiterGlo, confirmation, counter-screen for streptokinase expression inhibitor project, dose response (AID 1900); assay type: functional, organism-based
[11] = tested on: Vero; test: cells; assay type: functional; details: Chlorocebus sabaeus
[12] = tested on: H4; test: Luminescence Cell-Based Dose Response HTS to Identify Activators of 5'UTR Stem-Loop Driven Prion Protein mRNA Translation in H4 Neuroglioblastoma Cells. [Related pubchem assays: 1829 (Project Summary), 1814 (Primary HTS)]; assay type: functional; details: Homo sapiens
[13] = Luminescence Cell-Based Dose Confirmation HTS to Identify Activators of 5'UTR Stem-Loop Driven Alpha-Synuclein mRNA Translation in H4 Neuroglioblastoma Cells. [Related pubchem assays: 1829 (Project Summary), 1814 (Primary HTS)]; assay type: functional
[14] = Luminescence Cell-Based Dose Response HTS to Identify Activators of Luciferase Translation or Activity in H4 […] Cells. [Related pubchem assays: 1829 (Project Summary), 1814 (Primary HTS)]; assay type: functional
[15] = molecular target: Dual specificity tyrosine-phosphorylation-regulated kinase 1A (Rattus norvegicus, UniProt Q63470); assay type: biochemical, Homo sapiens
[16] = molecular target: Disintegrin and metalloproteinase domain-containing protein 17 (Homo sapiens, UniProt P78536); test: exosite inhibitors of ADAM17, dose response, biochemical (AID 743260)
Sequence of Disintegrin and metalloproteinase domain-containing protein 17 (P78536 whole entry, the tested form may be a part): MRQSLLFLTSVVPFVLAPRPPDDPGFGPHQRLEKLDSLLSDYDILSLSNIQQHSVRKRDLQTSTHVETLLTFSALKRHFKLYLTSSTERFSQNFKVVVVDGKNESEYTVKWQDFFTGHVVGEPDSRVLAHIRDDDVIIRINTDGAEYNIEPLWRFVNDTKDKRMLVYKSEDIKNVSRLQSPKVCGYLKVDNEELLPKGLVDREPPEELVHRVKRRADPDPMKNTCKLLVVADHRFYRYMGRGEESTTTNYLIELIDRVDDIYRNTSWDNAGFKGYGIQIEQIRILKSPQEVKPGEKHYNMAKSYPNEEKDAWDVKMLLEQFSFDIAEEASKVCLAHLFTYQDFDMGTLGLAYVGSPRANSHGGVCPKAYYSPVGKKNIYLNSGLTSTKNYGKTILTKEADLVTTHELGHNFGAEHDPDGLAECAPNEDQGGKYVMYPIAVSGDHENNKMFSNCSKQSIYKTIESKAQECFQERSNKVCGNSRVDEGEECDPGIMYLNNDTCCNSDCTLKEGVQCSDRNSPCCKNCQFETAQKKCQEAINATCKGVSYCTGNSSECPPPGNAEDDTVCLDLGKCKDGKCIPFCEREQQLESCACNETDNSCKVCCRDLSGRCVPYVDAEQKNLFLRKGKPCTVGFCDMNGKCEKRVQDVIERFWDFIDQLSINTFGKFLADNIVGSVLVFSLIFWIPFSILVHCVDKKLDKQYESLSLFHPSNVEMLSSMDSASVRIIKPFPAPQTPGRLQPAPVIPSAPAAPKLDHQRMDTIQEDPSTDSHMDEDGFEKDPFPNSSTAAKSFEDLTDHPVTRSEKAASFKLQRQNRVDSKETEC

[17] = molecular target: T2, Protein Tat (Human immunodeficiency virus type 1 group M subtype B (isolate HXB2)(HIV-1), UniProt P04608); assay type: functional;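 note: tat binding to TAR RNA read out by fluorescence polarization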
T2 sequence (P04608 whole entry): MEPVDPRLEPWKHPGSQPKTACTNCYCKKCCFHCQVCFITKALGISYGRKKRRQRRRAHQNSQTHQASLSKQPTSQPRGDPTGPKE

[18] = luciferase reporter signal suppression in cells – H4 neuroglioma cells, luminescence, dose response (AID 1990); assay type: functional, cell-based
[19] = Luminescence Cell-Based Dose Response HTS to Identify Inhibitors of 5'UTR Stem-Loop Driven Prion Protein mRNA Translation in H4 Neuroglioblastoma Cells. [Related pubchem assays: 1827 (Project Summary), 1813 (Primary HTS)]; assay type: functional
[20] = alpha-synuclein stem-loop luciferase translation blockers – H4 neuroglioma cells, luminescence, confirmation (AID 1988); assay type: functional, cell-based
[21] = molecular target: FAD-linked sulfhydryl oxidase ALR (Homo sapiens, UniProt P55789); test: ALR-catalysed DTT oxidation blockers – biochemical, H2O2 detection, luminescence, cherry-pick, dose response (AID 493248)
Sequence of FAD-linked sulfhydryl oxidase ALR (P55789 whole entry): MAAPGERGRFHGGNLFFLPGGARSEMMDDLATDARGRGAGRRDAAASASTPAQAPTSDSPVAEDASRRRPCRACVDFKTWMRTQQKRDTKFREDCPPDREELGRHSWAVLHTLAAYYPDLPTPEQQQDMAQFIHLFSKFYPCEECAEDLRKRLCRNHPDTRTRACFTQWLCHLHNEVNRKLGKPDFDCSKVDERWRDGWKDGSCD

[22] = molecular target: Fatty acid synthase (Homo sapiens, UniProt P49327); test: inhibition of human FAS-TE enzyme activity – biochemical, kinetic fluorescence intensity, dose response (AID 624326); assay type: functional;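 note: rate of fluorescence rise from hydrolysis of a fluorogenic O-methyl fluorescein ester substrate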
Sequence of Fatty acid synthase (P49327 whole entry): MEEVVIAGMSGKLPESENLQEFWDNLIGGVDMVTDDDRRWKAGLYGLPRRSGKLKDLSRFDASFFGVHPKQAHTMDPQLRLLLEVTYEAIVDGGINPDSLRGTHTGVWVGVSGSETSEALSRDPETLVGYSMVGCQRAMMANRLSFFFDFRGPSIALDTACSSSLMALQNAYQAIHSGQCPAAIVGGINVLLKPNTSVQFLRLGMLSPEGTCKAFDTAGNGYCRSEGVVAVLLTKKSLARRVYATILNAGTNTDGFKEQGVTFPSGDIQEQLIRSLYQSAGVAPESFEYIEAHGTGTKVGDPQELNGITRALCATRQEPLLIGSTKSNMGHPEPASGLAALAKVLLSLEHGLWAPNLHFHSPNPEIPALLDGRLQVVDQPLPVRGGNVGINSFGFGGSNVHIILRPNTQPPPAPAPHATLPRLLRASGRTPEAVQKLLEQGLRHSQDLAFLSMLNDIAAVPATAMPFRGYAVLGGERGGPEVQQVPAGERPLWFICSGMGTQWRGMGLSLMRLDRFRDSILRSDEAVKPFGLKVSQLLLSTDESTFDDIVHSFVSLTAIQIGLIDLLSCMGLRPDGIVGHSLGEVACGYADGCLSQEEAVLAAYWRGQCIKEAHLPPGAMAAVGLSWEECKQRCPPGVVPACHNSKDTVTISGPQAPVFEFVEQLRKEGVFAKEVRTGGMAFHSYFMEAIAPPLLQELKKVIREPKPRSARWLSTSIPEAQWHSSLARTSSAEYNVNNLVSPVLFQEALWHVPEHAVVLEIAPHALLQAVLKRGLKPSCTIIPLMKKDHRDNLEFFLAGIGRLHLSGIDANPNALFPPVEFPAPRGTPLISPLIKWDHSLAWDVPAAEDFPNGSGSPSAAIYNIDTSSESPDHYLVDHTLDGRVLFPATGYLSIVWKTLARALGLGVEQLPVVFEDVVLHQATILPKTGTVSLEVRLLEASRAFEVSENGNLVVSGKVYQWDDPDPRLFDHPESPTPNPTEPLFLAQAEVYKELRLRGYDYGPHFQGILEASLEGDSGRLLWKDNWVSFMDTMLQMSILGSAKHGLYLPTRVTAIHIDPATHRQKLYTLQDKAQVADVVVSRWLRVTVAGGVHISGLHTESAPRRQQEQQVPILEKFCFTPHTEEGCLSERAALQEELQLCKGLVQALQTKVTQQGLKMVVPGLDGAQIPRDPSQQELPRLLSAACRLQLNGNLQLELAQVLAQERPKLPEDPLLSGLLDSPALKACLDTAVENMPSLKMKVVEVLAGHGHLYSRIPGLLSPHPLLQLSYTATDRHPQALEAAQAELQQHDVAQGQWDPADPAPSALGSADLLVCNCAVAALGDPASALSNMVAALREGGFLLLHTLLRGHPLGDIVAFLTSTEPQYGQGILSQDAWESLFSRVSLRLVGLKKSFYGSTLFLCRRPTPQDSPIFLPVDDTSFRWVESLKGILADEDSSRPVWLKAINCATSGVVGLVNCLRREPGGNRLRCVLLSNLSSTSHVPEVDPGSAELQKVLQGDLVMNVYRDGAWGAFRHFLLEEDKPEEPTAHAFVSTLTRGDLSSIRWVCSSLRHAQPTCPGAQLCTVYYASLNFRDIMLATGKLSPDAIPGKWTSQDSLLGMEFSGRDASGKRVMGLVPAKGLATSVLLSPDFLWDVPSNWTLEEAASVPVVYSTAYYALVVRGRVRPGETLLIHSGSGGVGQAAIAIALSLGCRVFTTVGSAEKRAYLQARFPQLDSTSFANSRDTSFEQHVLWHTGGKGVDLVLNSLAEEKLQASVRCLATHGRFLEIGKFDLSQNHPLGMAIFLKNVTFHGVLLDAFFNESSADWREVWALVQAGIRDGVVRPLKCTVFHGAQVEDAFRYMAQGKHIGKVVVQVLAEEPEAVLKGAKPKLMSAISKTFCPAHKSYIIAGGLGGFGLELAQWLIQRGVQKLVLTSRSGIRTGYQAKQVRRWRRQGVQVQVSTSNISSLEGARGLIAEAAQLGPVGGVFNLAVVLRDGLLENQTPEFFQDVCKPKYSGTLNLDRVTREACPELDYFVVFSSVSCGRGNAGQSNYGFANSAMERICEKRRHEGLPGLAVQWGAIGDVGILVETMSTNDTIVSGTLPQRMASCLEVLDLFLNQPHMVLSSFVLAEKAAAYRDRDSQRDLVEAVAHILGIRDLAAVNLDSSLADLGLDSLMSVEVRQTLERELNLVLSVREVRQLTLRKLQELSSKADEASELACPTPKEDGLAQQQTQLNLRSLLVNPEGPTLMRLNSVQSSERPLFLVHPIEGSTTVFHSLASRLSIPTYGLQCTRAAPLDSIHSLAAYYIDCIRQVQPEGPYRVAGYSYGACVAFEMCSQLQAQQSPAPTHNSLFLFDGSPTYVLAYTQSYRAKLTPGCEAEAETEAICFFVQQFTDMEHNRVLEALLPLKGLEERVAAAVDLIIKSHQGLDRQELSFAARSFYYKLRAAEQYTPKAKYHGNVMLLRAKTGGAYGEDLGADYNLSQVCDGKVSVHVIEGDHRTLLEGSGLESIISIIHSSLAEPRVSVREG

[23] = molecular target: Luciferin 4-monooxygenase (Photinus pyralis, UniProt P08659); test: inhibition of purified Photinus pyralis luciferase – biochemical, luminescence, dose response (AID 1891)
Sequence of Luciferin 4-monooxygenase (P08659 whole entry): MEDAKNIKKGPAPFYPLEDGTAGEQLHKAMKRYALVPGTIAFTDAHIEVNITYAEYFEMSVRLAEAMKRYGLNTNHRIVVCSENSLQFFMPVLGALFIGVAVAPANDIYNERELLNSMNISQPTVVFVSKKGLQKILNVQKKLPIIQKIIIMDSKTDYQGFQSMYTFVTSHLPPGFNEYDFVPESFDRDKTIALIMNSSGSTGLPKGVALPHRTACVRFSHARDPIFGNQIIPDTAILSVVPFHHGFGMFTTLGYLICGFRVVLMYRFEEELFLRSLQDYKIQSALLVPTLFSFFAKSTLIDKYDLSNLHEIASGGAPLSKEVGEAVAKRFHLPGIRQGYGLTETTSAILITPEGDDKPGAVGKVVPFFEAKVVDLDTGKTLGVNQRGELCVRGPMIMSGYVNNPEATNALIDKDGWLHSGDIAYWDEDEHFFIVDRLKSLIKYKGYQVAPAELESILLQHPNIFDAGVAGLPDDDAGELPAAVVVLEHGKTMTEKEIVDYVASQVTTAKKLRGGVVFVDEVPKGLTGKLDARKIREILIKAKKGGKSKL

[24] = Luminescence Cell-Based Dose Confirmation HTS to Identify Inhibitors of Platelet Dense Granule Release. [Related pubchem assays: 1663 (Primary HTS), 1678 (Summary of Project)]; assay type: functional
[25] = molecular target: Albumin (Bos taurus, UniProt P02769); test: Counterscreen for inhibitors of T-cell receptor (TCR)-CD3 interaction: Fluorescence-based biochemical high throughput dose response assay to identify inhibitors of T-cell receptor (TCR)-CD3 interaction using a TAMRA-labeled BSA probe.; assay type: functional
Sequence of Albumin (P02769 whole entry): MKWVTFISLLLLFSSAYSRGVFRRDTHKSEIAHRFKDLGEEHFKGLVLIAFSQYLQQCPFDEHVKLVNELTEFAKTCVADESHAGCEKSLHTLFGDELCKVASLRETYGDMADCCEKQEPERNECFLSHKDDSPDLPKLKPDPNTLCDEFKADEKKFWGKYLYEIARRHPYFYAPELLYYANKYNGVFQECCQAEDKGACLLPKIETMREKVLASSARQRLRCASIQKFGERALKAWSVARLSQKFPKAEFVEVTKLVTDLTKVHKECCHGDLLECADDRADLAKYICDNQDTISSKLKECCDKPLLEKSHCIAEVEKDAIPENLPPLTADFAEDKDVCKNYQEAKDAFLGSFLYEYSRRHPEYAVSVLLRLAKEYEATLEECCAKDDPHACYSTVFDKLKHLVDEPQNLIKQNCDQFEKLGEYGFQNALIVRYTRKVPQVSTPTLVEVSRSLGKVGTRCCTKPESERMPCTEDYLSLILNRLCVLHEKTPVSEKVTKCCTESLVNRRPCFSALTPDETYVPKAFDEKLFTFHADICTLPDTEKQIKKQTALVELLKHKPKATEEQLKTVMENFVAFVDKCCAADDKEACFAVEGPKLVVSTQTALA

O=C(CCS(=O)(=O)c1ccccc1)Nc1nc2ccc(F)cc2s1
AC50 [1]: > 100 µM (inactive)
AC50 [2]: 36.9 µM (active)
AC50 [3]: 3.55 µM (active)
AC50 [4]: 20.3 µM (active)
AC50 [5]: 28 µM (active)
AC50 [6]: > 100 µM (inactive)

COc1cccc(NC(=O)Nc2nc(SC(C)(C)C)ns2)c1
EC50 [7]: > 50 µM (not active)
CC50 [8]: 7.82 µM (active)
EC50 [9]: 9.69 µM (active)
EC50 [10]: 9.49 µM (active)
CC50 [11]: 7.41 µM (active)

Fc1cccc(/C=N/Nc2[nH]cnc3ncnc2-3)c1
EC50 [12]: > 120 µM (not active)
EC50 [13]: > 120 µM (not active)
EC50 [14]: 40.8 µM (active)
AC50 [15]: 10.1 µM (active)

C/C(=N\N=C(/N)SC1CC(=O)N(c2ccc(Br)cc2)C1=O)c1cccs1 (stereo unspecified)
EC50 [7]: 19.1 µM (active)
IC50 [16]: > 69.5 µM (inactive)
EC50 [9]: 9.08 µM (active)
EC50 [10]: 6.72 µM (active)

CSc1oc(-c2ccco2)nc1S(=O)(=O)c1ccccc1
IC50 [17]: > 100 µM (active)

O=C1N(c2ccccc2C(F)(F)F)O[C@@]1(c1ccccc1)C1CCCCC1
CC50 [11]: > 25 µM (active)

CC(C)C[C@H](NC(=O)c1[nH]cnc1C(=O)N1CCN(c2ccccc2)CC1)C(=O)OC(C)(C)C
EC50 [18]: 14.5 µM (active)
EC50 [19]: 65.1 µM (active)
EC50 [20]: 26.5 µM (active)
IC50 [17]: > 100 µM (active)

O=S(=O)(c1ccc(-c2csc(-c3cccnc3)n2)cc1)N1CCCC1
AC50 [21]: 0.268 µM (active)
IC50 [22]: 1.62 µM (active)

O=C(c1ccccc1)c1ccc2cc(O)ccc2c1
EC50 [23]: 0.752 µM (active)
EC50 [24]: 7.74 µM (active)
AC50 [15]: 9.25 µM (active)

Cc1noc(C)c1COc1ccc(C(=O)NNC(=O)c2ccccc2O)cc1
IC50 [25]: > 94.1 µM (inactive)
